Measured values from US4347361A, “4,5α-Epoxy-3-hydroxy or methoxy-7-(1-hydroxy-alkyl or 1-oxoalkyl)morphinan-6-one compounds” (SISA, Incorporated, priority 1980, dated 1982).

Assays:
[1] = test system: male CD-1 mice (acetic acid writhing); test: acetic acid mouse writhing test (analgesic effects); assay type: in vivo, mice (male CD-1); settings: subcutaneous; for ED50: sc, 0.25 h, acetic acid i.p. 15 min post drug, read-out: ED50 (dose required to reduce the number of writhes by 50%); for ED50: Ia at dose: at 10 (mg/kg), Ia not defined; for % reduction of number of writhes (ED50 column, X%(Y)): at 10 mg/kg
Method: (A) Analgesic effects upon mice (acetic acid writhing test).
The analgesic effects of test compounds were determined in mice by use of the acetic acid writhing test described by B. A. Whittle, Brit. J. Pharmacol., 22:246 (1964). In this test at least three groups of five male CD-1 mice each were given subcutaneous doses of the test drug dissolved in either distilled water or distilled water acidified with HCl depending on the solubility of the compound. Fifteen (15) minutes post drug, 0.4 milliliter of a 0.75% or 1.0% or 0.6 milliliter of a 1.0% V/V acetic acid in distilled water solution was administered intraperitoneally. The number of writhes in a 20 minute interval beginning 5 minutes after the acetic acid injection were determined and compared with the number of writhes in control groups which had received only acetic acid.
Percent inhibition of writhing was calculated as: [formula]
The ED50 dose, i.e., the dose required to reduce the number of writhes by 50%, was determined graphically from a plot of % inhibition as a probit versus log dose. Confidence limits of 95% were calculated on the basis of those results falling in the range 16-84% inhibition. See Litchfield, J. T. and Wilcoxon, F., J. Pharmacol. Exp. Ther., 96:99, (1949).

[2] = test system: male albino Wistar rats (morphine effect, tail flick); test: narcotic antagonist activity, modified rat tail flick test (inhibition of morphine effect); assay type: in vivo; settings: intraperitoneal; for AD50: Ia at dose: at 10 (mg/kg), Ia not defined; for AD50: Ia at dose / AD50: X%(Y): vs ED80 morphine; for ED50: ip, 10 min before ED80 dose of morphine s.c., read-out: AD50 (dose required to inhibit the morphine effect by 50%)
Method: (B) Narcotic antagonist activity in rats (modified rat tail flick test).
The narcotic antagonist effects of test compounds were determined by a modification of the rat tail flick procedure of Harris and Pierson, J. Pharmacol. Exp. Ther. 143:141 (1964).
Male albino Wistar rats (100-120 g.) were used for this study. A rat's tail is so placed so as to cover a photocell. Heat is applied by a lamp in a reflector with a timer being connected to the lamp and photocell so that the timer goes on when the light is turned on and is turned off when the photocell is uncovered. A rheostat, incorporated into a heating lamp is used to adjust the intensity of the light falling on the tail of the rat such that the rat's control reaction time is from 1.2 to 5.8 seconds. Animals with a control reaction time outside this range are rejected. The rheostat adjustment is made only if a significant proportion (more than 1 out of every 10 rats) of the reaction times are outside the range of 1.2 to 5.8 seconds. Groups of five rats were used each time, and two control times were determined at least 30 minutes apart.
The test drug was given intraperitoneally and this was followed ten minutes later by an ED80 dose of morphine subcutaneously. The animals were retested at 20 minutes after the morphine injection. Control animals were given morphine only. […] The data were calculated as follows: [formula]
The data were plotted on log-probit paper and AD50 values, i.e., the dose required to inhibit the morphine effect by 50% within 95% confidence limits, were determined by the method of Litchfield and Wilcoxon.

Row | SMILES | ED50 [1] [mg/kg] | ED50 [2] [mg/kg] | other results
1 | CCCCCC(=O)C1C[C@H]2[C@H]3Cc4ccc(OC)c5c4[C@@]2(CCN3C)[C@@H](O5)C1=O (stereo partly drawn) [MLS-5682] | 4 |  | 
2 | COc1ccc2c3c1O[C@H]1C(=O)C(C(=O)CCCc4ccccc4)C[C@H]4[C@@H](C2)N(C)CC[C@]314 (stereo partly drawn) [MLS-5683, 7-(4-Phenylbutyroyl)Dihydrocodeinone] | 0.41 |  | 
3 | COc1ccc2c3c1O[C@H]1C(=O)C(C(=O)CCc4ccccc4)C[C@H]4[C@@H](C2)N(C)CC[C@]314 (stereo partly drawn) [MLS-5688H] | 0.62 |  | 
4 | CCCCCC(=O)C1C[C@H]2[C@H]3Cc4ccc(O)c5c4[C@@]2(CCN3C)[C@@H](O5)C1=O (stereo partly drawn) [MLS-5689] | 0.76 |  | 
5 | CN1CC[C@]23c4c5ccc(O)c4O[C@H]2C(=O)C(C(=O)CCc2ccccc2)C[C@H]3[C@H]1C5 (stereo partly drawn) [MLS-5690] | 0.105 |  | 
6 | CN1CC[C@]23c4c5ccc(O)c4O[C@H]2C(=O)C(C(=O)CCCc2ccccc2)C[C@H]3[C@H]1C5 (stereo partly drawn) [MLS-5691, 7-(4-Phenylbutyroyl)Dihydromorphone] | 0.0052 |  | 
7 | CCCC(=O)C1C[C@H]2[C@H]3Cc4ccc(OC)c5c4[C@@]2(CCN3C)[C@@H](O5)C1=O (stereo partly drawn) [MLS-5692] |  |  | ED50: Ia at dose [1]: Ia
8 | CCCCCC(C)(O)C1C[C@H]2[C@H]3Cc4ccc(O)c5c4[C@@]2(CCN3C)[C@@H](O5)C1=O (stereo partly drawn) [MLS-5694] | 2.9 |  | 
9 | CCCC(=O)C1C[C@H]2[C@H]3Cc4ccc(O)c5c4[C@@]2(CCN3C)[C@@H](O5)C1=O (stereo partly drawn) [MLS-5695] | 5.25 |  | 
10 | COc1ccc2c3c1O[C@H]1C(=O)C(C(C)=O)C[C@H]4[C@@H](C2)N(CC2CC2)CC[C@]314 (stereo partly drawn) [TR-5463] |  |  | % reduction of number of writhes (ED50 column, X%(Y)) [1]: 9%; AD50: Ia at dose [2]: Ia
11 | CCCC(=O)C1C[C@H]2[C@H]3Cc4ccc(OC)c5c4[C@@]2(CCN3CC2CC2)[C@@H](O5)C1=O (stereo partly drawn) [TR-5464] | 2.81 | 8.1 | 
12 | CC(=O)C1C[C@H]2[C@H]3Cc4ccc(O)c5c4[C@@]2(CCN3CC2CC2)[C@@H](O5)C1=O (stereo partly drawn) [TR-5475] | 4.05 | 1.3 | 
13 | CCCC(=O)C1C[C@H]2[C@H]3Cc4ccc(O)c5c4[C@@]2(CCN3CC2CC2)[C@@H](O5)C1=O (stereo partly drawn) [TR-5476, 17-cyclopropylmethyl-4,5α-epoxy-3-hydroxy-7-butanoylmorphinan-6-one] | 4.65 | 2.55 | 
14 | COc1ccc2c3c1O[C@H]1C(=O)C(C(C)(C)O)C[C@H]4[C@@H](C2)N(CC2CC2)CC[C@]314 (stereo partly drawn) [TR-5479] |  |  | ED50: Ia at dose [1]: Ia; AD50: X%(Y) ([2]; at 10 mg/kg): 41%
15 | COc1ccc2c3c1O[C@H]1C(=O)C(C(C)(C)O)C[C@H]4[C@@H](C2)N(C)CC[C@]314 (stereo partly drawn) [TR-5492] | 4.5 |  | 
16 | CCCC(C)(O)C1C[C@H]2[C@H]3Cc4ccc(OC)c5c4[C@@]2(CCN3CC2CC2)[C@@H](O5)C1=O (stereo partly drawn) [TR-5499] | 0.42 |  | AD50: X%(Y) ([2]; at 7 mg/kg): 12%
17 | COc1ccc2c3c1O[C@H]1C(=O)C(C(=O)c4ccccc4)C[C@H]4[C@@H](C2)N(CC2CC2)CC[C@]314 (stereo partly drawn) [TR-5501] | 11.3 | 8 | 
18 | CCCCCC(=O)C1C[C@H]2[C@H]3Cc4ccc(OC)c5c4[C@@]2(CCN3CC2CC2)[C@@H](O5)C1=O (stereo partly drawn) [TR-5504] | 5.7 |  | AD50: Ia at dose [2]: Ia
19 | CCCCCC(=O)C1C[C@H]2[C@H]3Cc4ccc(O)c5c4[C@@]2(CCN3CC2CC2)[C@@H](O5)C1=O (stereo partly drawn) [TR-5505] | 0.29 | 22 | 

Row | SMILES | ED50 [1] [mg/kg] | ED50 [2] [mg/kg] | other results
20 | O=C(c1ccccc1)C1C[C@H]2[C@H]3Cc4ccc(O)c5c4[C@@]2(CCN3CC2CC2)[C@@H](O5)C1=O (stereo partly drawn) [TR-5506] | 4.35 | 0.24 | 
21 | COc1ccc2c3c1O[C@H]1C(=O)C(C(=O)C(C)C)C[C@H]4[C@@H](C2)N(CC2CC2)CC[C@]314 (stereo partly drawn) [TR-5509] | 7.5 | 2.8 | 
22 | CC(C)C(=O)C1C[C@H]2[C@H]3Cc4ccc(O)c5c4[C@@]2(CCN3CC2CC2)[C@@H](O5)C1=O (stereo partly drawn) [TR-5511] | > 10 | 0.81 | 
23 | CCCCC(=O)C1C[C@H]2[C@H]3Cc4ccc(OC)c5c4[C@@]2(CCN3CC2CC2)[C@@H](O5)C1=O (stereo partly drawn) [TR-5519] | > 10 |  | AD50: Ia at dose [2]: Ia
24 | CCCCC(=O)C1C[C@H]2[C@H]3Cc4ccc(O)c5c4[C@@]2(CCN3CC2CC2)[C@@H](O5)C1=O (stereo partly drawn) [TR-5520] | 1.59 |  | AD50: X%(Y) ([2]; at 10 mg/kg): 77%
25 | CCCCCC(C)(O)C1C[C@H]2[C@H]3Cc4ccc(O)c5c4[C@@]2(CCN3CC2CC2)[C@@H](O5)C1=O (stereo partly drawn) [TR-5538] | 0.28 | 6.6 | 
26 | CCCCCCC(=O)C1C[C@H]2[C@H]3Cc4ccc(OC)c5c4[C@@]2(CCN3CC2CC2)[C@@H](O5)C1=O (stereo partly drawn) [TR-5539] | > 10 | > 10 | 
27 | CCCCCCC(=O)C1C[C@H]2[C@H]3Cc4ccc(O)c5c4[C@@]2(CCN3CC2CC2)[C@@H](O5)C1=O (stereo partly drawn) [TR-5540] | 0.4 |  | AD50: Ia at dose [2]: Ia
28 | CCCC(C)(O)C1C[C@H]2[C@H]3Cc4ccc(O)c5c4[C@@]2(CCN3CC2CC2)[C@@H](O5)C1=O (stereo partly drawn) [TR-5543, 17-cyclopropylmethyl-4,5α-epoxy-3-hydroxy-7-(1-hydroxy-1-methylbutyl)morphinan-6-one] | 1.8 | 2.8 | 
29 | CCCCC(C)(O)C1C[C@H]2[C@H]3Cc4ccc(OC)c5c4[C@@]2(CCN3CC2CC2)[C@@H](O5)C1=O (stereo partly drawn) [TR-5544] |  |  | % reduction of number of writhes (ED50 column, X%(Y)) [1]: 10%; AD50: Ia at dose [2]: Ia
30 | CCCCC(C)(O)C1C[C@H]2[C@H]3Cc4ccc(O)c5c4[C@@]2(CCN3CC2CC2)[C@@H](O5)C1=O (stereo partly drawn) [TR-5551] |  | 2.5 | % reduction of number of writhes (ED50 column, X%(Y)) [1]: 40%
31 | CCC(=O)C1C[C@H]2[C@H]3Cc4ccc(OC)c5c4[C@@]2(CCN3CC2CC2)[C@@H](O5)C1=O (stereo partly drawn) [TR-5570] |  | 6.5 | % reduction of number of writhes (ED50 column, X%(Y)) [1]: 11%
32 | COc1ccc2c3c1O[C@H]1C(=O)C(C(=O)C(C)(C)C)C[C@H]4[C@@H](C2)N(CC2CC2)CC[C@]314 (stereo partly drawn) [TR-5571] |  |  | ED50: Ia at dose [1]: Ia; AD50: X%(Y) ([2]; at 10 mg/kg): 13%
33 | CC(C)C(C)(O)C1C[C@H]2[C@H]3Cc4ccc(O)c5c4[C@@]2(CCN3CC2CC2)[C@@H](O5)C1=O (stereo partly drawn) [TR-5572] | 7.8 | 2.2 | 
34 | CCC(=O)C1C[C@H]2[C@H]3Cc4ccc(O)c5c4[C@@]2(CCN3CC2CC2)[C@@H](O5)C1=O (stereo partly drawn) [TR-5573] |  | 0.51 | ED50: Ia at dose [1]: Ia
35 | CC(C)(C)CC(=O)C1C[C@H]2[C@H]3Cc4ccc(O)c5c4[C@@]2(CCN3CC2CC2)[C@@H](O5)C1=O (stereo partly drawn) [TR-5574] |  | > 10 | ED50: Ia at dose [1]: Ia
36 | COc1ccc2c3c1O[C@H]1C(=O)C(C(=O)c4ccc(F)cc4)C[C@H]4[C@@H](C2)N(CC2CC2)CC[C@]314 (stereo partly drawn) [TR-5575] |  |  | ED50: Ia at dose [1]: Ia; AD50: X%(Y) ([2]; at 10 mg/kg): 17%
37 | COc1ccc2c3c1O[C@H]1C(=O)C(C(=O)Cc4ccccc4)C[C@H]4[C@@H](C2)N(CC2CC2)CC[C@]314 (stereo partly drawn) [TR-5577] |  |  | % reduction of number of writhes (ED50 column, X%(Y)) [1]: 21%; AD50: Ia at dose [2]: Ia
38 | O=C(c1ccc(F)cc1)C1C[C@H]2[C@H]3Cc4ccc(O)c5c4[C@@]2(CCN3CC2CC2)[C@@H](O5)C1=O (stereo partly drawn) [TR-5579] |  |  | % reduction of number of writhes (ED50 column, X%(Y)) [1]: 29%; AD50: X%(Y) ([2]; at 10 mg/kg): 45%
